Experimental data reported in PubChem BioAssay AID1259407 (Chemical Carcinogenesis Research Information System (CCRIS), 2018).
Calls of active or inactive are those of the source. No rule for the calls is given here.

System: CCRIS mutagenicity, Ames/micronucleus/aberration tests
Test: CCRIS mutagenicity studies
[1] = Test System: AMES SALMONELLA TYPHIMURIUM, Strain/Indicator: TA98, Metabolic Activation: NONE, Method: STANDARD PLATE
[2] = Test System: AMES SALMONELLA TYPHIMURIUM, Strain/Indicator: TA98, Metabolic Activation: RAT, LIVER, S-9, AROCLOR 1254, Method: STANDARD PLATE
[3] = Test System: AMES SALMONELLA TYPHIMURIUM, Strain/Indicator: TA100, Metabolic Activation: NONE, Method: STANDARD PLATE
[4] = Test System: AMES SALMONELLA TYPHIMURIUM, Strain/Indicator: TA100, Metabolic Activation: RAT, LIVER, S-9, AROCLOR 1254, Method: STANDARD PLATE
[5] = Test System: AMES SALMONELLA TYPHIMURIUM, Strain/Indicator: TA98, Metabolic Activation: NONE, Method: PREINCUBATION
[6] = Test System: AMES SALMONELLA TYPHIMURIUM, Strain/Indicator: TA100, Metabolic Activation: NONE, Method: PREINCUBATION

Compound: O=[N+]([O-])c1ccc2ccc3c4c(cc5ccc1c2c53)C=CCC4
- mutagenic call (Test System: AMES SALMONELLA TYPHIMURIUM, Strain/Indicator: TA98(1,8-DNP6), Metabolic Activation: NONE, Method: STANDARD PLATE): active; positive
- mutagenic call (Test System: AMES SALMONELLA TYPHIMURIUM, Strain/Indicator: TA98(1,8-DNP6), Metabolic Activation: RAT, LIVER, S-9, AROCLOR 1254, Method: STANDARD PLATE): active; positive
- mutagenic call (Test System: AMES SALMONELLA TYPHIMURIUM, Strain/Indicator: TA98(NR), Metabolic Activation: NONE, Method: STANDARD PLATE): active; positive
- mutagenic call (Test System: AMES SALMONELLA TYPHIMURIUM, Strain/Indicator: TA98(NR), Metabolic Activation: RAT, LIVER, S-9, AROCLOR 1254, Method: STANDARD PLATE): active; positive
- mutagenic call [1]: active; positive
- mutagenic call [2]: active; positive
- mutagenic call [3]: active; positive
- mutagenic call [4]: active; positive

Compound: CC1=CC(=O)C=C2CC[C@@H]3[C@H](CC[C@]4(C)C(=O)CC[C@@H]34)[C@@]12C
- mutagenic call (End Point: IN VITRO CHROMOSOMAL ABERRATIONS, Test System: HUMAN PERIPHERAL LYMPHOCYTES, Metabolic Activation: NONE): inactive; negative
- mutagenic call (End Point: IN VITRO CHROMOSOMAL ABERRATIONS, Test System: HUMAN PERIPHERAL LYMPHOCYTES, Metabolic Activation: RAT, LIVER, S-9, AROCLOR 1254): inactive; negative
- mutagenic call (End Point: IN VIVO MICRONUCLEUS, Test System: BONE MARROW POLYCHROMATIC ERYTHROCYTES, Species: MOUSE, Strain/Sex: NMRI/MALE, FEMALE, Route: INTRAGASTRIC): inactive; negative
- mutagenic call [5]: inactive; negative
- mutagenic call [1]: inactive; negative
- mutagenic call (Test System: AMES SALMONELLA TYPHIMURIUM, Strain/Indicator: TA98, Metabolic Activation: RAT, LIVER, S-9, AROCLOR 1254, Method: PREINCUBATION): inactive; negative
- mutagenic call [2]: inactive; negative
- mutagenic call [6]: inactive; negative
- mutagenic call [3]: inactive; negative
- mutagenic call (Test System: AMES SALMONELLA TYPHIMURIUM, Strain/Indicator: TA100, Metabolic Activation: RAT, LIVER, S-9, AROCLOR 1254, Method: PREINCUBATION): inactive; negative
- mutagenic call [4]: inactive; negative
- mutagenic call (Test System: AMES SALMONELLA TYPHIMURIUM, Strain/Indicator: TA1535, Metabolic Activation: NONE, Method: PREINCUBATION): inactive; negative
- mutagenic call (Test System: AMES SALMONELLA TYPHIMURIUM, Strain/Indicator: TA1535, Metabolic Activation: NONE, Method: STANDARD PLATE): inactive; negative
- mutagenic call (Test System: AMES SALMONELLA TYPHIMURIUM, Strain/Indicator: TA1535, Metabolic Activation: RAT, LIVER, S-9, AROCLOR 1254, Method: PREINCUBATION): inactive; negative
- mutagenic call (Test System: AMES SALMONELLA TYPHIMURIUM, Strain/Indicator: TA1535, Metabolic Activation: RAT, LIVER, S-9, AROCLOR 1254, Method: STANDARD PLATE): inactive; negative
- mutagenic call (Test System: AMES SALMONELLA TYPHIMURIUM, Strain/Indicator: TA1537, Metabolic Activation: NONE, Method: PREINCUBATION): inactive; negative
- mutagenic call (Test System: AMES SALMONELLA TYPHIMURIUM, Strain/Indicator: TA1537, Metabolic Activation: NONE, Method: STANDARD PLATE): inactive; negative
- mutagenic call (Test System: AMES SALMONELLA TYPHIMURIUM, Strain/Indicator: TA1537, Metabolic Activation: RAT, LIVER, S-9, AROCLOR 1254, Method: PREINCUBATION): inactive; negative
- mutagenic call (Test System: AMES SALMONELLA TYPHIMURIUM, Strain/Indicator: TA1537, Metabolic Activation: RAT, LIVER, S-9, AROCLOR 1254, Method: STANDARD PLATE): inactive; negative
- mutagenic call (Test System: AMES SALMONELLA TYPHIMURIUM, Strain/Indicator: TA1538, Metabolic Activation: NONE, Method: PREINCUBATION): inactive; negative
- mutagenic call (Test System: AMES SALMONELLA TYPHIMURIUM, Strain/Indicator: TA1538, Metabolic Activation: NONE, Method: STANDARD PLATE): inactive; negative
- mutagenic call (Test System: AMES SALMONELLA TYPHIMURIUM, Strain/Indicator: TA1538, Metabolic Activation: RAT, LIVER, S-9, AROCLOR 1254, Method: PREINCUBATION): inactive; negative
- mutagenic call (Test System: AMES SALMONELLA TYPHIMURIUM, Strain/Indicator: TA1538, Metabolic Activation: RAT, LIVER, S-9, AROCLOR 1254, Method: STANDARD PLATE): inactive; negative
- mutagenic call (Test System: CHINESE HAMSTER V-79, Strain/Indicator: V-79 (HGPRT)/6-THIOGUANINE, Metabolic Activation: NONE): inactive; negative
- mutagenic call (Test System: CHINESE HAMSTER V-79, Strain/Indicator: V-79 (HGPRT)/6-THIOGUANINE, Metabolic Activation: RAT, LIVER, S-9, AROCLOR 1254): inactive; negative

Compound: O=C(O)C(Cl)=C(C(Cl)Cl)C(Cl)Cl
- mutagenic call [5]: active; positive
- mutagenic call [6]: active; positive
- mutagenic call [3]: active; positive
- mutagenic call (Test System: AMES SALMONELLA TYPHIMURIUM, Strain/Indicator: TA104, Metabolic Activation: NONE, Method: PREINCUBATION): active; positive

Compound: CC(=O)CN(C)N=O
- mutagenic call (Test System: AMES SALMONELLA TYPHIMURIUM, Strain/Indicator: TA100, Metabolic Activation: HAMSTER, LIVER, S-9, 3-METHYLCHOLANTHRENE, Method: PREINCUBATION): active; positive
- mutagenic call (Test System: AMES SALMONELLA TYPHIMURIUM, Strain/Indicator: TA100, Metabolic Activation: HAMSTER, LIVER, S-9, PHENOBARBITAL, Method: PREINCUBATION): active; positive
- mutagenic call (Test System: AMES SALMONELLA TYPHIMURIUM, Strain/Indicator: TA100, Metabolic Activation: HUMAN, LIVER, S-9, Method: PREINCUBATION): inactive; negative
- mutagenic call (Test System: AMES SALMONELLA TYPHIMURIUM, Strain/Indicator: TA100, Metabolic Activation: MONKEY, LIVER, S-9, Method: PREINCUBATION): active; positive
- mutagenic call (Test System: AMES SALMONELLA TYPHIMURIUM, Strain/Indicator: TA100, Metabolic Activation: MOUSE, LIVER, S-9, 3-METHYLCHOLANTHRENE, Method: PREINCUBATION): active; positive
- mutagenic call (Test System: AMES SALMONELLA TYPHIMURIUM, Strain/Indicator: TA100, Metabolic Activation: MOUSE, LIVER, S-9, PHENOBARBITAL, Method: PREINCUBATION): active; positive
- mutagenic call (Test System: AMES SALMONELLA TYPHIMURIUM, Strain/Indicator: TA100, Metabolic Activation: MOUSE, LIVER, S-9, Method: PREINCUBATION): active; positive
- mutagenic call [6]: inactive; negative
- mutagenic call (Test System: AMES SALMONELLA TYPHIMURIUM, Strain/Indicator: TA100, Metabolic Activation: RABBIT, LIVER, S-9, Method: PREINCUBATION): active; positive
- mutagenic call (Test System: AMES SALMONELLA TYPHIMURIUM, Strain/Indicator: TA100, Metabolic Activation: RAT, LIVER, CYTOSOL, PCB, Method: PREINCUBATION): inactive; negative
- mutagenic call (Test System: AMES SALMONELLA TYPHIMURIUM, Strain/Indicator: TA100, Metabolic Activation: RAT, LIVER, MICROSOMES AND CYTOSOL, PCB, Method: PREINCUBATION): active; positive
- mutagenic call (Test System: AMES SALMONELLA TYPHIMURIUM, Strain/Indicator: TA100, Metabolic Activation: RAT, LIVER, MICROSOMES AND G6PDH, PCB, Method: PREINCUBATION): active; positive
- mutagenic call (Test System: AMES SALMONELLA TYPHIMURIUM, Strain/Indicator: TA100, Metabolic Activation: RAT, LIVER, MICROSOMES, PCB, Method: PREINCUBATION): active; positive
- mutagenic call (Test System: AMES SALMONELLA TYPHIMURIUM, Strain/Indicator: TA100, Metabolic Activation: RAT, LIVER, S-9 (HEATED), PCB, Method: PREINCUBATION): inactive; negative
- mutagenic call (Test System: AMES SALMONELLA TYPHIMURIUM, Strain/Indicator: TA100, Metabolic Activation: RAT, LIVER, S-9, 3-METHYLCHOLANTHRENE, Method: PREINCUBATION): inactive; negative
- mutagenic call (Test System: AMES SALMONELLA TYPHIMURIUM, Strain/Indicator: TA100, Metabolic Activation: RAT, LIVER, S-9, PCB, Method: PREINCUBATION): active; positive
- mutagenic call (Test System: AMES SALMONELLA TYPHIMURIUM, Strain/Indicator: TA100, Metabolic Activation: RAT, LIVER, S-9, PHENOBARBITAL, Method: PREINCUBATION): active; positive
- mutagenic call (Test System: AMES SALMONELLA TYPHIMURIUM, Strain/Indicator: TA100, Metabolic Activation: RAT, LIVER, S-9 WITHOUT NADP+, PCB, Method: PREINCUBATION): inactive; negative
- mutagenic call (Test System: AMES SALMONELLA TYPHIMURIUM, Strain/Indicator: TA100, Method: PREINCUBATION): active; positive
- mutagenic call (Test System: CHINESE HAMSTER V-79, Strain/Indicator: V-79/OUABAIN, Metabolic Activation: HAMSTER, HEPATOCYTES, Method: CELL-MEDIATED): active; positive

Compound: C[n+]1ccc(-c2ccccc2)cc1
- mutagenic call [6]: inactive; negative
- mutagenic call (Test System: AMES SALMONELLA TYPHIMURIUM, Strain/Indicator: TA102, Metabolic Activation: NONE, Method: PREINCUBATION): inactive; negative
